In US12528818B2, “Compositions and methods for inhibition of RAS” (Leidos Biomedical Research, Inc., priority 2021, dated 2026) one finds IC50 data, which are given here for seven compounds.

Structures are written as SMILES.

The experiment concerns pERK in NCI-H358 cells. Put plainly: Cell-based pERK HTRF assay (pERK inhibition in H358 cells). Particulars: Homo sapiens, NCI-H358, 0.5 h, pERK inhibition IC50, NCI-H358 cells, 30 min incubation; read-out: PERK in H358 cell.

On to `C=CC(=O)N1CCC(N(C)c2nc(OCCO)nc3c(F)c(-c4ccc(F)c5sc(N)c(C#N)c45)ccc23)[C@H]1C` (stereo partly shown) [Compound 468], for which the IC50 was in the range of 100 to 1000 nM.

In the case of `C=CC(=O)N1CC[C@@H](N(C)c2nc(OC[C@@]34CCCN3C[C@H](F)C4)nc3c(F)c(-c4ccc(F)c5sc(N)c(C#N)c45)c(C(F)(F)F)cc23)[C@@H]1C` [Compound 469], the IC50 is less than 100 nM.

Regarding `C=CC(=O)N1CCC(N(CC)c2nc(OC[C@@H]3CCCN3C)nc3cc(-c4ccc(F)c5sc(N)c(C#N)c45)c(C#N)cc23)[C@H]1COC` (stereo partly shown) [Compound 470], the IC50 was in the range of 100 to 1000 nM.

For the compound `C=CC(=O)N1CCC(N(CC)c2nc(OC[C@@H]3C[C@@H](F)CN3C)nc3cc(-c4ccc(F)c5sc(N)c(C#N)c45)c(C#N)cc23)[C@H]1COC` (stereo partly shown) [Compound 471], the IC50 was in the range of 100 to 1000 nM.

`C=CC(=O)N1CCC(N(C)c2nc(OC[C@@]34CCCN3C[C@H](OC)C4)nc3c(F)c(-c4ccc(F)c5sc(N)c(C#N)c45)c(Cl)cc23)[C@H]1C` (stereo partly shown) [Compound 474]: the IC50 was less than 100 nM.

For `C=CC(=O)N1CCC(N(C)c2nc(OC[C@@]34CCCN3C[C@H](OC)C4)nc3c(F)c(-c4ccc(F)c5sc(N)c(C#N)c45)c(C(F)(F)F)cc23)[C@H]1C` (stereo partly shown) [Compound 476], the IC50 is less than 100 nM.

For the compound `C=CC(=O)N1CCC(N(C)c2nc(OC[C@]34CCCN3C[C@H](F)C4)nc3c(F)c(-c4ccc(F)c5sc(N)c(C#N)c45)c(C(F)(F)F)cc23)[C@H]1C` (stereo partly shown) [Compound 477], the IC50 is less than 100 nM.
